Data on one substance can be found in patent publication US9006205B2, “Antisense oligonucleotides against neutral sphingomyelinase and neutral sphingomyelinase inhibitor GW4869 for degenerative neurological disorders” (Rush University Medical Center, priority 2011, dated 2015).

Common to all, as to assay type: cell-based
The subject of one data set is N-SMase. The data set is described as follows: Western blot of N-SMase protein after antisense knockdown in primary human neurons. The conditions noted are these: 48 h with oligonucleotide. The protocol: Because these ASOs have become a very critical part of our study, the efficacy of N-SMase and A-SMase ASOs in inhibiting the protein expression of N-SMase and A-SMase was checked by western blot. […] Next, the effect of antisense knockdown of neuronal N-SMase and/or A-SMase on activated glia-induced neuronal apoptosis by TUNEL was investigated. […] As evidenced by a decrease In MTT metabolism, activated astroglia reduced neuronal viability (FIG. 2E).
Primary human neurons were incubated with antisense (ASO) and scrambled oligonucleotides (ScO) against N-SMase (A) and A-SMase (FIG. 2B). After 48 h, neurons were analyzed for protein expression of N-SMase and A-SMase. In FIG. 2C, primary human astrocytes seeded in inserts were stimulated by the combination of Aβ and IL-1β as described above. […] After 6 h of treatment with activated astrocytes, apoptotic events in neurons were detected by TUNEL. In FIG. 2D, TUNEL-positive cells were counted manually in four different images of each of three coverslips by three individuals blinded to the experiment. In FIG. 2E, after 18 h of stimulation, cell viability was examined by the metabolism of MTT and the release of LDH. […] Cell viability was checked by MTT (FIG. 2F) and LDH (FIG. 2G). Values obtained from the control group served as 100%, and data obtained in other groups were calculated as percent of control accordingly. […]
In general terms: Immunoblotting shows a protein as a band on a membrane.

Data set [1] concerns primary human neurons. The data set is described as follows: MTT metabolism of neurons in astrocyte-neuron trans-well. The following applies: neurons pretreated with oligonucleotide; 18 h of stimulation. As for the experimental part:
Primary human astrocytes were grown to confluency on inserts. After 24 h of stimulation by the combination of Aβ (1 μM) and IL-Iβ (10 ng/ml), inserts were washed thrice with HBSS and then placed onto the wells containing primary human neurons. Therefore, in this trans-well model, although neurons and astrocytes face each other, they are separable and the effect of soluble factors released from activated astrocytes on neurons can be studied allowing analysis of neuronal and glial populations separately.
Mitochondrial activity was measured with the 3-(4,5-dimethylthiazol-2-yl)-2,5-diphenyltetrazolium bromide (MTT) assay (Sigma). The cells were grown on 24-well culture plates with 500 μl of medium and treated with various reagents according to the experimental design. At the end of the treatment period, 300 μl of culture medium were removed from each well, and 20 μl of MTT solution (5 mg/ml) were added and incubated for 1 h.
Primary human neurons were incubated with antisense (ASO) and scrambled oligonucleotides (ScO) against N-SMase (A) and A-SMase (FIG. 2B). After 48 h, neurons were analyzed for protein expression of N-SMase and A-SMase. In FIG. 2C, primary human astrocytes seeded in inserts were stimulated by the combination of Aβ and IL-1β as described above. […] After 6 h of treatment with activated astrocytes, apoptotic events in neurons were detected by TUNEL. In FIG. 2D, TUNEL-positive cells were counted manually in four different images of each of three coverslips by three individuals blinded to the experiment. […] Values obtained from the control group served as 100%, and data obtained in other groups were calculated as percent of control accordingly. […]
In FIGS. 3A-3E, primary human astrocytes seeded in inserts were stimulated by the combination of Aβ and IL-Iβ as described above. […] In FIG. 3A, after 1 h, activity of N-SMase was measured in total cell extracts of neurons as described above. […] Values obtained from the control group served as 100%, and data obtained in other groups were calculated as percent of control accordingly.

In data set [2] the test system is primary human neurons. The data set is described as follows: TUNEL apoptosis of neurons challenged by oligomeric Aβ-activated astrocytes, trans-well. The conditions noted are these: neurons pretreated 40 h with 1 μM oligonucleotide; 6 h. As for the experimental part:
Fragmented DNA was detected in situ by the terminal deoxynucleotidyltransferase-mediated binding of 3′-OH ends of DNA fragments generated in response to fibrillar Aβ1-42, using a commercially available kit (TdT FragEL™) from Calbiochem. Briefly, cover slips were treated with 20 μg/ml proteinase K for 15 min at room temperature and washed prior to terminal deoxynucleotidyltransferase staining.
In FIG. 5A, primary astrocytes were stimulated with fibrillar Aβ1-42, oligomeric Aβ1-42 and reverse peptide Aβ42-1 for 24 h followed by double-labeling of GFAP and iNOS. In FIG. 5B, primary human astrocytes seeded in inserts were stimulated with a combination of I μM of oligomeric Aβ1-42 and 10 ng/ml of IL-Iβ in serum free media. […] After 6 h, neuronal apoptosis was monitored by TUNEL. In FIG. 5C, TUNEL-positive cells were counted manually in four different images of each of three coverslips by three individuals blinded to the experiment. Values obtained from the control group (1) served as 100%, and data obtained from other three groups i.e. the oligomeric Aβ-activated astrocytes (OAA) group (2), the ASO-OAA group (3), and the ScO-OAA group (4) was calculated as percent of control accordingly. Results are mean+S.D. of three different experiments. ^ap<0.001 vs control; ^bp<0.001 vs OAA.

For “5′- CAGCGAGCCCGTCCACCAGCC -3′ (DNA, all phosphorothioate, methylation of C not given here) [ASO against N-SMase, ID; NO.: 12]”, the “level of N-SMase protein” value in the data set on N-SMase was “effectively inhibited”. Further, in the data set with primary human neurons [1], the “activated astroglia-mediated loss of MTT metabolism” value is “effectively prevented”. Also, in the data set on primary human neurons [2], the “oligomeric Aβ-activated astrocyte-induced apoptosis of human neurons (TUNEL)” value is on record as “blocked”.
